PubChem BioAssay (NCI)
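Compound exposure: 48 hours, 5 concentrations, 96-well plates. TGI is the concentration that stops growth completely.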

Experiments:
Assay in all cases: NCI tumour cell line growth inhibition, 48 h
OVCAR-3 ovarian = tested on: OVCAR-3 ovarian
UACC-257 melanoma = tested on: UACC-257 melanoma
HS 578T breast = tested on: HS 578T breast
MCF7 breast = tested on: MCF7 breast
HOP-62 NSCLC = tested on: HOP-62 NSCLC
TK-10 renal = tested on: TK-10 renal
OVCAR-5 ovarian = tested on: OVCAR-5 ovarian
OVCAR-4 ovarian = tested on: OVCAR-4 ovarian
SK-MEL-28 melanoma = tested on: SK-MEL-28 melanoma
SK-MEL-5 melanoma = tested on: SK-MEL-5 melanoma
HCT-15 colon = tested on: HCT-15 colon
HOP-92 NSCLC = tested on: HOP-92 NSCLC
UO-31 renal = tested on: UO-31 renal
SN12C renal = tested on: SN12C renal
SF-539 CNS = tested on: SF-539 CNS
LOX IMVI melanoma = tested on: LOX IMVI melanoma
RXF 393 renal = tested on: RXF 393 renal
COLO 205 colon = tested on: COLO 205 colon
MDA-N = tested on: MDA-N
A549 NSCLC = tested on: A549 NSCLC
NCI/ADR-RES ovarian = tested on: NCI/ADR-RES ovarian
SF-268 CNS = tested on: SF-268 CNS
T-47D breast = tested on: T-47D breast
MDA-MB-231 breast = tested on: MDA-MB-231 breast
K-562 leukemia = tested on: K-562 leukemia
SW-620 colon = tested on: SW-620 colon
SNB-75 CNS = tested on: SNB-75 CNS
U251 CNS = tested on: U251 CNS
SF-295 CNS = tested on: SF-295 CNS
ACHN renal = tested on: ACHN renal
MDA-MB-435 = tested on: MDA-MB-435
KM12 colon = tested on: KM12 colon
HCT-116 colon = tested on: HCT-116 colon
NCI-H460 lung = tested on: NCI-H460 lung
DU-145 prostate = tested on: DU-145 prostate
786-0 renal = tested on: 786-0 renal
SK-OV-3 ovarian = tested on: SK-OV-3 ovarian
MOLT-4 leukemia = tested on: MOLT-4 leukemia
CCRF-CEM leukemia = tested on: CCRF-CEM leukemia
IGROV1 ovarian = tested on: IGROV1 ovarian
NCI-H23 lung = tested on: NCI-H23 lung
M14 melanoma = tested on: M14 melanoma
HT29 colon = tested on: HT29 colon
RPMI-8226 leukemia = tested on: RPMI-8226 leukemia
HCC-2998 colon = tested on: HCC-2998 colon
BT-549 breast = tested on: BT-549 breast
SK-MEL-2 melanoma = tested on: SK-MEL-2 melanoma
MALME-3M melanoma = tested on: MALME-3M melanoma
SNB-19 CNS = tested on: SNB-19 CNS
CAKI-1 renal = tested on: CAKI-1 renal
PC-3 prostate = tested on: PC-3 prostate
SR leukemia = tested on: SR leukemia
UACC-62 melanoma = tested on: UACC-62 melanoma
HL-60(TB) leukemia = tested on: HL-60(TB) leukemia
A498 renal = tested on: A498 renal
NCI-H226 lung = tested on: NCI-H226 lung
EKVX NSCLC = tested on: EKVX NSCLC
OVCAR-8 ovarian = tested on: OVCAR-8 ovarian

For `O=C(NCCC(F)(F)C(F)(F)C(F)(F)C(F)(F)F)NC1OC(CO)C(O)C(O)C1O` (centres undefined), the TGI (OVCAR-3 ovarian) was > 100 µM, the TGI (UACC-257 melanoma) was > 100 µM and the TGI (HS 578T breast) was > 100 µM. The TGI (MCF7 breast) was > 100 µM, the TGI (HOP-62 NSCLC) was > 100 µM and the TGI (TK-10 renal) was > 100 µM. The TGI (OVCAR-5 ovarian) was > 100 µM, the TGI (OVCAR-4 ovarian) was > 100 µM and the TGI (SK-MEL-28 melanoma) was > 100 µM. The TGI (SK-MEL-5 melanoma) was > 100 µM, the TGI (HCT-15 colon) was > 100 µM and the TGI (HOP-92 NSCLC) was > 100 µM. For the same compound, the TGI (UO-31 renal) was > 100 µM, the TGI (SN12C renal) was > 100 µM and the TGI (SF-539 CNS) was > 100 µM. For the same compound, the TGI (LOX IMVI melanoma) was > 100 µM, the TGI (RXF 393 renal) was > 100 µM and the TGI (COLO 205 colon) was > 100 µM. For the same compound, the TGI (MDA-N) was > 100 µM, the TGI (A549 NSCLC) was > 100 µM and the TGI (NCI/ADR-RES ovarian) was > 100 µM. For the same compound, the TGI (SF-268 CNS) was > 100 µM, the TGI (T-47D breast) was > 100 µM and the TGI (MDA-MB-231 breast) was > 100 µM. The TGI (K-562 leukemia) was > 100 µM, the TGI (SW-620 colon) was > 100 µM and the TGI (SNB-75 CNS) was > 100 µM. For the same compound, the TGI (U251 CNS) was > 100 µM, the TGI (SF-295 CNS) was > 100 µM and the TGI (ACHN renal) was > 100 µM. The TGI (MDA-MB-435) was > 100 µM, the TGI (KM12 colon) was > 100 µM and the TGI (HCT-116 colon) was > 100 µM. For the same compound, the TGI (NCI-H460 lung) was > 100 µM, the TGI (DU-145 prostate) was > 100 µM and the TGI (786-0 renal) was > 100 µM. For the same compound, the TGI (SK-OV-3 ovarian) was > 100 µM, the TGI (MOLT-4 leukemia) was > 100 µM and the TGI (CCRF-CEM leukemia) was > 100 µM. The TGI (IGROV1 ovarian) was > 100 µM, the TGI (NCI-H23 lung) was > 100 µM and the TGI (M14 melanoma) was > 100 µM. For the same compound, the TGI (HT29 colon) was > 100 µM, the TGI (RPMI-8226 leukemia) was > 100 µM and the TGI (HCC-2998 colon) was > 100 µM. For the same compound, the TGI (BT-549 breast) was > 100 µM, the TGI (SK-MEL-2 melanoma) was > 100 µM and the TGI (MALME-3M melanoma) was > 100 µM. The TGI (SNB-19 CNS) was > 100 µM, the TGI (CAKI-1 renal) was > 100 µM and the TGI (PC-3 prostate) was > 100 µM. The TGI (SR leukemia) was > 100 µM, the TGI (UACC-62 melanoma) was > 100 µM and the TGI (HL-60(TB) leukemia) was > 100 µM.

With `COc1cccc(-c2ccc3c4c2O[C@H]2c5[nH]c6ccccc6c5C[C@@]5(O)[C@@H](C3)N(CC3CC3)CC[C@]425)c1` the TGI (OVCAR-3 ovarian) was 3.3 µM, the TGI (UACC-257 melanoma) was 3.2 µM and the TGI (HS 578T breast) was 3.33 µM. The TGI (MCF7 breast) was 3.06 µM, the TGI (HOP-62 NSCLC) was 3.12 µM and the TGI (TK-10 renal) was 3.48 µM. For the same compound, the TGI (OVCAR-5 ovarian) was 20.8 µM, the TGI (OVCAR-4 ovarian) was 3.27 µM and the TGI (SK-MEL-28 melanoma) was > 23.1 µM. The TGI (SK-MEL-5 melanoma) was 3.85 µM, the TGI (HCT-15 colon) was 3.7 µM and the TGI (HOP-92 NSCLC) was 3.04 µM. It also gave a TGI (UO-31 renal) of 3.1 µM, a TGI (SN12C renal) of 3.13 µM and a TGI (SF-539 CNS) of 3.51 µM. The TGI (LOX IMVI melanoma) was 3.09 µM, the TGI (A498 renal) was 6.83 µM and the TGI (RXF 393 renal) was 3.03 µM. For the same compound, the TGI (COLO 205 colon) was 4.15 µM, the TGI (MDA-N) was 3.28 µM and the TGI (A549 NSCLC) was 3.36 µM. The TGI (NCI/ADR-RES ovarian) was 5.21 µM, the TGI (SF-268 CNS) was 3.37 µM and the TGI (T-47D breast) was 4.23 µM. For the same compound, the TGI (MDA-MB-231 breast) was 3.44 µM, the TGI (NCI-H226 lung) was 30.2 µM and the TGI (K-562 leukemia) was 4.98 µM. For the same compound, the TGI (SW-620 colon) was 4.77 µM, the TGI (U251 CNS) was 3.15 µM and the TGI (SF-295 CNS) was 3.08 µM. It also gave a TGI (ACHN renal) of 2.98 µM, a TGI (MDA-MB-435) of 3.18 µM and a TGI (KM12 colon) of 3.26 µM. It also gave a TGI (EKVX NSCLC) of 9.5 µM, a TGI (HCT-116 colon) of 2.99 µM and a TGI (NCI-H460 lung) of 3.22 µM. It also gave a TGI (DU-145 prostate) of 6.91 µM, a TGI (786-0 renal) of 3.09 µM and a TGI (MOLT-4 leukemia) of 9.34 µM. For the same compound, the TGI (CCRF-CEM leukemia) was > 100 µM, the TGI (IGROV1 ovarian) was 3.04 µM and the TGI (NCI-H23 lung) was 5.27 µM. The TGI (M14 melanoma) was 3.27 µM, the TGI (HT29 colon) was 3.19 µM and the TGI (RPMI-8226 leukemia) was 5.25 µM. The TGI (HCC-2998 colon) was 2.87 µM, the TGI (BT-549 breast) was 15.9 µM and the TGI (SK-MEL-2 melanoma) was 3.69 µM. The TGI (MALME-3M melanoma) was 2.88 µM, the TGI (OVCAR-8 ovarian) was 3.11 µM and the TGI (SNB-19 CNS) was 4.23 µM. For the same compound, the TGI (CAKI-1 renal) was 4.9 µM, the TGI (PC-3 prostate) was 2.48 µM and the TGI (SR leukemia) was 5.51 µM. The TGI (UACC-62 melanoma) was 3.05 µM.
